Measured values taken from PubChem BioAssay AID1845210 (Molecular Pharmacology Branch, DTP, NCI, 2023).

System: NCI-H226 complex tumor spheroids, viability
Assay: Anticancer human tumor NCI-H226 cell line growth inhibition;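 further: spheroids exposed to compound for 7 days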;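 on viability, T/C: 100% = DMSO vehicle control viability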
Conditions: for IC50: curve of first compound; for viability, T/C: stronger effect = lower value
Summary of the method: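 Single agents and combinations were tested on spheroids built from tumor cells plus HUVEC and hMSC, at half-log dilutions starting at or near clinical Cmax, else 10 microM; final DMSO 0.25% (v/v).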

CC(C)n1c(=O)n(C)c2cnc3cc(F)c(-c4ccc(OCCCN5CCCCC5)nc4)cc3c21 + Cn1nnc2c(C(N)=O)ncn2c1=O gave an IC50 (second compound 1 µM) of 5.83 µM, an IC50 (second compound 3.16 µM) of 5.92 µM and an IC50 (second compound 10 µM) of 6 µM. For the same compound, the IC50 (second compound 31.6 µM) was 5.72 µM, the IC50 (second compound 100 µM) was > 10 µM and the viability, T/C (second compound 1 µM, first compound 0.0316 µM) was 111%. For the same compound, the viability, T/C (second compound 1 µM, first compound 0.1 µM) was 115%, the viability, T/C (second compound 1 µM, first compound 0.316 µM) was 120% and the viability, T/C (second compound 1 µM, first compound 1 µM) was 118%. The viability, T/C (second compound 1 µM, first compound 3.16 µM) was 102%, the viability, T/C (second compound 1 µM, first compound 10 µM) was 4.4% and the viability, T/C (second compound 3.16 µM, first compound 0.0316 µM) was 112%. The viability, T/C (second compound 3.16 µM, first compound 0.1 µM) was 113%, the viability, T/C (second compound 3.16 µM, first compound 0.316 µM) was 114% and the viability, T/C (second compound 3.16 µM, first compound 1 µM) was 102%. For the same compound, the viability, T/C (second compound 3.16 µM, first compound 3.16 µM) was 104%, the viability, T/C (second compound 3.16 µM, first compound 10 µM) was 4.91% and the viability, T/C (second compound 10 µM, first compound 0.0316 µM) was 114%. The viability, T/C (second compound 10 µM, first compound 0.1 µM) was 119%, the viability, T/C (second compound 10 µM, first compound 0.316 µM) was 109% and the viability, T/C (second compound 10 µM, first compound 1 µM) was 114%. The viability, T/C (second compound 10 µM, first compound 3.16 µM) was 109%, the viability, T/C (second compound 10 µM, first compound 10 µM) was 3.29% and the viability, T/C (second compound 31.6 µM, first compound 0.0316 µM) was 117%. For the same compound, the viability, T/C (second compound 31.6 µM, first compound 0.1 µM) was 108%, the viability, T/C (second compound 31.6 µM, first compound 0.316 µM) was 110% and the viability, T/C (second compound 31.6 µM, first compound 1 µM) was 99.4%. For the same compound, the viability, T/C (second compound 31.6 µM, first compound 3.16 µM) was 99.9%, the viability, T/C (second compound 31.6 µM, first compound 10 µM) was 3.07% and the viability, T/C (second compound 100 µM, first compound 0.0316 µM) was 122%. For the same compound, the viability, T/C (second compound 100 µM, first compound 0.1 µM) was 115%, the viability, T/C (second compound 100 µM, first compound 0.316 µM) was 115% and the viability, T/C (second compound 100 µM, first compound 1 µM) was 117%. It also gave a viability, T/C (second compound 100 µM, first compound 3.16 µM) of 105% and a viability, T/C (second compound 100 µM, first compound 10 µM) of 64%.
